Here are results for ten compounds from patent US20160311788A1, “Antifouling Compounds And Use Thereof” (National University of Singapore, priority 2008, published 2016).

In test [1] the test system is marine bacteria strain S9. The test is described as follows: disc inhibition assay, strain S9. The class given is cell-based, Bacillus algicola. The settings on record: for zone of inhibition: strain 9, 50 μg of compound per disc; for zone of inhibition at 50 µg/disc: Guptibacillus algicola, S9, 24 h. The procedure:
(§1) The disc inhibition assay was used. This assay is a conventional method routinely used for screening antibacterial compounds to determine degree of susceptibility to antibacterial compounds. The diameter of the zone of inhibition is proportional to the degree of susceptibility of the bacterial strain. The compounds were tested against 13 strains of marine bacteria isolated from Singapore coastal waters.
(§2) 13 strains of marine bacteria were isolated from fouling communities located in the coastal waters around Singapore. These were characterized in earlier studies and reported in Teo et al. (U.S. patent application Ser. No. 11/265,833) and Choong et al (in prep). In addition, four reference bacterial strains were added tested: Escherichia coli (Strain K12, ATCC 15222), E. coli (strain DH5a), Pseudomonas aeruginosa (strain LMG 12228; ATCC 15692) and P. putida (strain KT2440; ATCC 47054). All the bacteria were also tested against five antibiotics: ampicillin (AMP), tetracycline (TETR), erythromycin (ERY), chloramphenicol (CHL) and streptomycin (STREP).
(§3) Disks comprising the compounds to be tested were prepared as follows. The antibacterial assay, the pure compounds were made up to a concentration of 2 mgml^−1 in DMSO. 25 μl of the stock was pipetted onto each 6 mm sterile disc (Macherey-Nagel #484000) to obtain 50 μg of compound per disc. Equivalent volume of DMSO was used inoculated for the control.
(§4) For all disk inhibition assays, bacterial cultures were grown in marine broth (Pronadisa #1217.00). Sterile swabs dipped into the cultures were used to inoculate Marine Agar plates with a bacterial lawn by smearing the culture over the surface. After inoculating the plates, discs with antibiotics, pharmaceuticals or control blanks were placed on each plate. Each concentration of antibiotic or pharmaceutical was tested with two replicates. After the disks were placed on the agar surface, plates were incubated overnight in the dark at 35° C. After incubation, plates were examined for zones of inhibition or clearing around control and treated disks. The diameter of any zone of clearing or inhibition was measured using Vernier calipers. There were two replicates per treatment, and the average was taken.

In test [2] the test system is marine bacteria strain S10. Description: disc inhibition assay, strain S10. Type of test: cell-based, Halobacillus trueperi. The note with it: for zone of inhibition at 50 µg/disc: Halobacillus trueperi, S10, 24 h. As to the method:
as §1, §2, §3, §4

Test [3] concerns marine bacteria strain S3. The test is described as follows: disc inhibition assay, strain S3. Type of test: cell-based, Erythrobacter aquimaris. The settings on record: for zone of inhibition at 50 µg/disc: Qipengyuania aquimaris, S3, 24 h. As to the method:
as §1, §2, §3, §4

Test [4] relates to marine bacteria strain S28. Description: disc inhibition assay, strain S28. Type of test: cell-based, Arthrobacter protophormial. The settings on record: for zone of inhibition: strain 28, 50 μg of compound per disc; for zone of inhibition at 50 µg/disc: Arthrobacter, S28, 24 h. As to the method: as §1, §2, §3, §4
Test [5] has as its system marine bacteria strain S4. Description: disc inhibition assay, strain S4. Type of test: cell-based, Bacillus algicola. The settings on record: for zone of inhibition: strain 4, 50 μg of compound per disc; for zone of inhibition at 50 µg/disc: Guptibacillus algicola, S4, 24 h. As to the method: as §1, §2, §3, §4
The test system of test [6] is marine bacteria strain S1. Description: disc inhibition assay, strain S1. The class given is cell-based, Rhodovulum iodosum. The note with it: for zone of inhibition: strain 1, 50 μg of compound per disc. The procedure:
as §1, §2, §3, §4

Test [7] concerns marine bacteria strain S16. The test is described as follows: disc inhibition assay, strain S16. Type of test: cell-based, Pseudoalteromonas piscicida. The note with it: for zone of inhibition at 50 µg/disc: Pseudoalteromonas piscicida, S16, 24 h; for antibacterial activity in words: strain S16. As to the method: as §1, §2, §3, §4
Test [8] has as its system marine bacteria strain S27. Description: disc inhibition assay, strain S27. Type of test: cell-based, Tenacibaculum lutimaris. The note with it: strain 27, 50 μg of compound per disc. As to the method: as §1, §2, §3, §4
Test [9] relates to marine bacteria strain S18. The test is described as follows: disc inhibition assay, strain S18. Type of test: cell-based, Microbacterium esteraromaticum. The note with it: for zone of inhibition: strain 18, 50 μg of compound per disc; for zone of inhibition at 50 µg/disc: Microbacterium esteraromaticum, S18, 24 h. As to the method:
as §1, §2
(§5) Disks comprising the compounds to be tested were prepared as follows. The antibacterial assay, the pure compounds were made up to a concentration of 2 mgml^−1 in DMSO. […] Equivalent volume of DMSO was used inoculated for the control.
as §4

Test [10] relates to marine bacteria strain S30. Description: disc inhibition assay, strain S30. Type of test: cell-based, Bacillus borophilicus. The note with it: for zone of inhibition: strain 30, 50 μg of compound per disc; for zone of inhibition at 50 µg/disc: Bacillus, S30, 24 h. As to the method: as §1, §2, §3, §4
In test [11] the test system is marine bacteria strain S17. The test is described as follows: disc inhibition assay, strain S17. Type of test: cell-based, Gordonia terrae. The note with it: for zone of inhibition: strain 17, 50 μg of compound per disc; for zone of inhibition at 50 µg/disc: Gordonia terrae, S17, 24 h. As to the method: as §1, §2, §3, §4
Test [12] relates to marine bacteria strain S14. The test is described as follows: disc inhibition assay, strain S14. Type of test: cell-based, Vibrio probioticus. The note with it: strain 14, 50 μg of compound per disc. As to the method: as §1, §2, §5, §4
Test [13] concerns marine bacteria strain S29. Description: disc inhibition assay, strain S29. The settings on record: for zone of inhibition: strain 29, 50 μg of compound per disc; for zone of inhibition at 50 µg/disc: Guptibacillus hwajinpoensis, S29, 24 h. The class given is cell-based, Bacillus hwajinpoensis. The procedure: as §1, §2, §3, §4
[14] abbreviates: strain 10, 50 μg of compound per disc.
Where [15] appears, read: strain 16, 50 μg of compound per disc.
Setting [16] is: strain 3, 50 μg of compound per disc.
Setting [17] is: strain 16, 50 μg of compound per disc, read-out: zone of inhibition.

Like-named read-outs stand apart in the source and are kept apart here. Some results are limits rather than exact numbers.

By zone of inhibition is commonly meant the extent of the growth-free halo in a diffusion test.

Turning to `O=C(C(c1ccccc1)c1ccccc1)N1CCC(O)(c2ccc(Cl)cc2)CC1` [Compound 4.3], the zone of inhibition result in [1], in test [2] (setting [14]), in test [4], in test [5], in test [6] and in test [7] (setting [15]) was “−” throughout. Moreover, the zone of inhibition result in test [8], in [9], in test [10], in test [11], in test [12] and in test [13] was “−” throughout. For the same compound, the zone of inhibition at 50 µg/disc in test [3] (strain 3, 50 μg of compound per disc, read-out: zone of inhibition) lay in the range of 2 to 5 mm.

Regarding `CN(C)C(=O)C(CC[N+]1(C)CCC(O)(c2ccc(Cl)cc2)CC1)(c1ccccc1)c1ccccc1` (stereo not drawn) [Compound 4.7], the zone of inhibition at 50 µg/disc in [1] was in the range of 5 to 10 mm; in [2], 5 to 10 mm; in test [3], 5 to 10 mm; in [4], 5 to 10 mm; in test [5] it was 5 to 10 mm; in test [7], 2 to 5 mm. The zone of inhibition at 50 µg/disc in test [9] lay in the range of 2 to 5 mm; in test [10] it was 2 to 5 mm; in test [11] it was 2 to 5 mm; in test [13] it was 5 to 10 mm. Also, the zone of inhibition result in test [6], in test [8] and in test [12] was “−” throughout.

Consider `CN(C)C(=O)C(CC[N+]1(O)CCC(O)(c2ccc(Cl)cc2)CC1)(c1ccccc1)c1ccccc1` (stereo not drawn) [Compound 5.1], for which the zone of inhibition entry in test [1], in test [2] (setting [14]), in test [4], in test [5], in test [6] and in [8] was “−” throughout. Further, the zone of inhibition result in [9], in test [10], in [12] and in [13] was “−” throughout. The zone of inhibition at 50 µg/disc in test [3], in test [7] and in [11] was 2 to 5 mm throughout.

In the case of `COC1(c2ccc(Cl)cc2)CC[N+](C)(CCC(C(=O)N(C)C)(c2ccccc2)c2ccccc2)CC1` (stereo not drawn) [Compound 5.2, N,O-dimethyl Loperamide], the zone of inhibition at 50 µg/disc lay in the range of 5 to 10 mm in [1]; 5 to 10 mm in test [2]; 5 to 10 mm in test [3]; 5 to 10 mm in test [4]; 5 to 10 mm in test [5]; 2 to 5 mm in [6] (Rhodovulum iodosum, S1). Moreover, the zone of inhibition at 50 µg/disc in test [7] is 2 to 5 mm; in [9], greater than 10 mm; in test [10], 5 to 10 mm; in [11] it was 2 to 5 mm; in [13], 5 to 10 mm. In test [6] (strain S1, text), the “antibacterial activity in words” value was “had activity”. The zone of inhibition result in test [8] and in [12] was “−” throughout.

With `CC(=O)OC1(c2ccc(Cl)cc2)CCN(CCC(C(=O)N(C)C)(c2ccccc2)c2ccccc2)CC1` [Compound 5.3], the zone of inhibition at 50 µg/disc in test [1] lay within 2 to 5 mm; in [2] it was 5 to 10 mm; in test [3] it was 5 to 10 mm; in test [4], 2 to 5 mm; in test [5], 2 to 5 mm; in test [9], 2 to 5 mm. The zone of inhibition at 50 µg/disc in test [10], in test [11] and in test [13] was 2 to 5 mm in each case. The zone of inhibition entry in [6], in [7] (setting [15]), in [8] and in test [12] was “−” each time.

Take `CN(C)C(=O)C(CCN1CCCCC1)(c1ccccc1)c1ccccc1` [Compound 9.1, N, N-Dimethyl-2,2-diphenyl-4-(piperidin-1-yl)butanamide]: the zone of inhibition at 50 µg/disc in test [1] and in test [9] was 2 to 5 mm in each case. The zone of inhibition entry in test [2] (setting [14]), in test [3] (setting [16]), in test [4], in [5], in [6] and in test [7] (setting [15]) was “−” in each case. Moreover, the zone of inhibition entry in [8], in [10], in test [11], in test [12] and in test [13] was “−” throughout.

As to `O=C(C(c1ccccc1)c1ccccc1)N1CCC(O)CC1` [Compound 9.3], the zone of inhibition result in test [1], in test [3] (setting [16]), in test [4], in [5], in test [6] and in test [8] was “−” throughout. Further, the zone of inhibition result in test [9], in test [10], in [11], in [12] and in test [13] was “−” each time. The zone of inhibition at 50 µg/disc in [2] (strain 10, 50 μg of compound per disc, read-out: zone of inhibition) is 2 to 5 mm; in test [7] (setting [17]), 2 to 5 mm.

Consider `O=C(Cc1ccccc1)N1CCCCC1` [Compound 10.5], for which the zone of inhibition entry in test [1], in test [2] (setting [14]), in test [3] (setting [16]), in test [4], in [5] and in test [6] was “−” each time. Moreover, the zone of inhibition result in test [8], in [9], in test [10], in test [11], in test [12] and in test [13] was “−” throughout. Further, the zone of inhibition at 50 µg/disc in [7] (setting [17]) was 5 to 10 mm.

In the case of `CCCCCC(=O)N1CCCCC1` [Compound 11.1], the zone of inhibition entry in test [1], in test [2] (setting [14]), in test [3] (setting [16]), in test [4], in [5] and in test [6] was “−” each time. Besides, the zone of inhibition result in [8], in [9], in test [10], in [11], in test [12] and in test [13] was “−” in each case. The zone of inhibition at 50 µg/disc in test [7] (setting [17]) fell in the range of 5 to 10 mm. Moreover, the “antibacterial activity in words” value in test [7] is “susceptible”.

For the compound `C/C=C/C=C/C(=O)N1CCCCC1` [Compound 11.4], in test [7], the “antibacterial activity in words” value is recorded as “susceptible”.
